Literature values, collected in patent US20250268979A1, “COMBINATION OF MACROCYCLIC CFTR MODULATORS WITH CFTR CORRECTORS AND / OR CFTR POTENTIATORS” (Idorsia Pharmaceuticals Ltd, priority 2022, published 2025).
Like-named read-outs stand apart in the source and are kept apart here.

How the values were obtained:
[1] = system: F508del-CFTR homozygous patients; conditions: Keating, 2018
[2] = system: CF patients with ivacaftor-responsive CFTR mutations; conditions: for mean ctrough plasma concentration: 4 weeks of treatment; for absolute change from baseline in sweat chloride compared to ivacaftor 150 mg b.i.d. / ppFEV1 treatment difference versus ivacaftor 150 mg b.i.d.: 12 weeks
[3] = system: healthy subjects
[4] = system: CF patients carrying class III, IV CFTR mutations on one allele
[5] = system: healthy volunteers; conditions: up to 1000 mg following SAD and up to 750 mg b.i.d. following MAD
[6] = system: patients with moderate to severe COPD and symptoms of chronic bronchitis; conditions: 300 mg b.i.d., 4 weeks
[7] = system: patients homozygous for the F508del-CFTR mutation; conditions: 450 mg b.i.d.
[8] = target: T1, F508del-CFTR (Homo sapiens, UniProt P13569, DEL508-508)
T1 construct: from tissue; host or cells: reconstituted bronchial epithelium from CF patients

[9] = system: CF patients homozygous for the F508del-CFTR mutation
[10] = target: T1, F508del-CFTR; conditions: homozygous F508del-CFTR doners; in the presence of potentiator GLPG1837
[11] = system: CF patients carrying at least one F508del-CFTR allele
[12] = 14 days, PTI-801 600 mg triple combination
[13] = patients predisposed to rapid pulmonary decline, combo regimen with 600 mg PTI-801

T1 sequence (P13569 with tags, fused parts or gaps DEL508-508): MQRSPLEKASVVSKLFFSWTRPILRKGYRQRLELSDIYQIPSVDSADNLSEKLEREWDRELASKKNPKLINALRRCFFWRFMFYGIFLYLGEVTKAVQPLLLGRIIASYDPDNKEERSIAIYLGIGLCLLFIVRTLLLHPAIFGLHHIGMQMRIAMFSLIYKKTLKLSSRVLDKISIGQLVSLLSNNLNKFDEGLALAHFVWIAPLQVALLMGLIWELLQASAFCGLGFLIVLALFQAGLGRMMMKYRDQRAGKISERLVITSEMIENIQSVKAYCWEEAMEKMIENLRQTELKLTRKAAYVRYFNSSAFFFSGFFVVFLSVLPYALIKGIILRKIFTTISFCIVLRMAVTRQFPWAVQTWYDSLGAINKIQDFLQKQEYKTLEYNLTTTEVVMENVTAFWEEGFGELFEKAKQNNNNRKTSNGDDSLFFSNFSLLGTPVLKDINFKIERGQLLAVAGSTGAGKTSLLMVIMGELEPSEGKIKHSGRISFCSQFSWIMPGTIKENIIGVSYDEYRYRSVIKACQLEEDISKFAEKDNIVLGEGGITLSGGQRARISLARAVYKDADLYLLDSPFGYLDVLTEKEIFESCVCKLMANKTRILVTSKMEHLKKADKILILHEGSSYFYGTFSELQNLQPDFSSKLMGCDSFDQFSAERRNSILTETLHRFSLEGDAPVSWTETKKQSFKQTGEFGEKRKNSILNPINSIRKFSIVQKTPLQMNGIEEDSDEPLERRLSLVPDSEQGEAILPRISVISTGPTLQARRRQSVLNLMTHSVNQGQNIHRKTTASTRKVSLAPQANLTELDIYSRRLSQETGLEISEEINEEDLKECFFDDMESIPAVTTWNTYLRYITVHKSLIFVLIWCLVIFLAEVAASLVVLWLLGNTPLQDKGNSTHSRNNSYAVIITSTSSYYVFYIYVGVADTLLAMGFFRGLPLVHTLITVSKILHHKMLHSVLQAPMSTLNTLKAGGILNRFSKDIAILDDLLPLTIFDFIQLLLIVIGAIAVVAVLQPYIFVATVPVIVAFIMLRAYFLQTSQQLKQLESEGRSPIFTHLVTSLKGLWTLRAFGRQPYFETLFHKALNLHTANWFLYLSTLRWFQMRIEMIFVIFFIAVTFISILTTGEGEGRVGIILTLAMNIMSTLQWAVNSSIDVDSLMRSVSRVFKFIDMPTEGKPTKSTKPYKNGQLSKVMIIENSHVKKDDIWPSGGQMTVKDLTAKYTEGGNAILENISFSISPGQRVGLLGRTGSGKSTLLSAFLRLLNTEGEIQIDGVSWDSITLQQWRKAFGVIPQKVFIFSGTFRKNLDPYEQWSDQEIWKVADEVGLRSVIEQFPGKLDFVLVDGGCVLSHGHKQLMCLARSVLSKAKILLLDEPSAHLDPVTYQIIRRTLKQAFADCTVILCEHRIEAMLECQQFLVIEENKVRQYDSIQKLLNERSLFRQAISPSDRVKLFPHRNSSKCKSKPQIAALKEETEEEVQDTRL

Compound: Cc1nn(C)cc1S(=O)(=O)NC(=O)c1ccc(-n2ccc(OCC(C)(C)C(F)(F)F)n2)nc1N1C[C@@H](C)CC1(C)C [elexacaftor, N-(1,3-dimethyl-1H-pyrazole-4-sulfonyl)-6-[3-(3,3,3-trifluoro-2,2-dimethylpropoxy)-1H-pyrazol-1-yl]-2-[(4S)-2,2,4-trimethylpyrrolidin-1-yl]pyridine-3-carboxamide]
- ppFEV1 increase on adding to basal treatment of tezacaftor+ivacaftor (SYMDEKO) [1]: 10%

Compound: [2H]C([2H])([2H])C(c1cc(C(C)(C)C)c(NC(=O)c2c[nH]c3ccccc3c2=O)cc1O)(C([2H])([2H])[2H])C([2H])([2H])[2H] [deutivacaftor, N-[2-tert-butyl-4-[1,1,1,3,3,3-hexadeuterio-2-(trideuteriomethyl)propan-2-yl]-5-hydroxyphenyl]-4-oxo-1H-quinoline-3-carboxamide]
- mean ctrough plasma concentration ([2]; 150 mg once daily): 458 ng/mL
- absolute change from baseline in sweat chloride compared to ivacaftor 150 mg b.i.d. ([2]; 150 mg once daily): +2.4 mM
- ppFEV1 treatment difference versus ivacaftor 150 mg b.i.d. ([2]; 150 mg once daily): +3.9%
- mean ctrough plasma concentration ([2]; 250 mg once daily): 1100 ng/mL
- absolute change from baseline in sweat chloride compared to ivacaftor 150 mg b.i.d. ([2]; 250 mg once daily): -7.4 mM
- ppFEV1 treatment difference versus ivacaftor 150 mg b.i.d. ([2]; 250 mg once daily): +3.5%

Compound: Nc1cc(S(=O)(=O)c2ccc(OC(F)(F)F)cc2)cnc1-c1nnc(CO)o1 [navocaftor, (5-(3-Amino-5-((4-(trifluoromethoxy)phenyl)sulfonyl)pyridin-2-yl)-1,3,4-oxadiazol-2-yl) methanol]
- navocaftor exposure in the presence of galicaftor ([3]; in vivo): not apparently altered
- tolerability ([3]; up to 1000 mg single dose and up to 500 mg b.i.d. for 14 days): generally well tolerated

Compound: COc1nc(C(=O)NC[C@](C)(O)C(F)(F)F)c(N)cc1C(F)(F)F [icenticaftor, 3-Amino-6-methoxy-N-[(2S)-3,3,3-trifluoro-2-hydroxy-2-methylpropyl]-5-(trifluoromethyl)pyridine-2-carboxamide]
- LCI2.5 compared to placebo ([4]; 450 mg b.i.d., 14 days): −1.13
- ppFEV1 increase versus placebo ([4]; 450 mg b.i.d., 14 days): 6.5%
- sweat chloride concentration versus placebo ([4]; 450 mg b.i.d., 14 days): -8.4 mM
- tolerability in CF patients ([4]; 150 and 450 mg b.i.d., across all patient sub-groups): well tolerated
- tolerability [5]: well tolerated
- LCI2.5 compared to placebo [6]: did not change
- sweat chloride compared to placebo ([6]; average baseline 23 mM): -5.04 mM
- FEV1 compared to placebo ([6]; average baseline 1.4-1.5 L): 0.05 to 0.06 L
- plasma fibrinogen compared to placebo ([6]; average baseline 3.2 g/L): -0.39 g/L
- sweat chloride and lung function [7]: no reduction in sweat chloride or improvement in lung function

Compound: CC(C)(C)c1cc(C(C)(C)C)c(NC(=O)c2c[nH]c3ccccc3c2=O)cc1O [ivacaftor, N-(2,4-di-tert-butyl-5-hydroxyphenyl)-1,4-dihydro-4-oxoquinoline-3-carboxamide]
- further augmentation of function on addition to tezacaftor and elexacaftor ([8]; Keating, 2018): 2 fold
- augmentation of CFTR function on addition to lumacaftor-corrected F508del-CFTR ([8]; van Goor, 2011): almost two-fold
- mean ctrough plasma concentration ([2]; 150 mg b.i.d.): 952 ng/mL

Compound: O=C(O)c1ccc([C@H]2C[C@@H](NC(=O)C3(c4ccc5c(c4)OC(F)(F)O5)CC3)c3ccc(OC(F)F)cc3O2)cc1 [galicaftor, 4-[(2R,4R)-4-({[1-(2,2-Difluoro-1,3-benzodioxol-5-yl)cyclopropyl]carbonyl}amino)-7-(difluoromethoxy)-3,4-dihydro-2H-chromen-2-yl]benzoic Acid]
- change in sweat chloride versus placebo ([9]; 200 mg dose group, day 29): -15.8 mM
- tolerability and safety ([9]; 4 weeks, once-daily 50, 100, 200 and 400 mg): well tolerated and safe
- change from baseline in CFQ-R score versus placebo ([9]; day 29): No significant changes versus placebo
- change from baseline in ppFEV1 versus placebo ([9]; day 29): No significant changes versus placebo
- galicaftor exposure in the presence of two different doses of navocaftor ([3]; in vivo): similar
- EC50 [10]: 5 nM

Compound: Cc1c(-c2cc(C(=O)O)c3c(O[C@H](C)C4CCOCC4)ccc(C)c3n2)oc2ccccc12 [PTI-801]
- decrease in sweat chloride compared with before treatment [11, 12]: 19 mM
- decrease in sweat chloride compared with placebo [11, 12]: 24 mM
- increase in mean absolute ppFEV1 compared with before the treatment ([11]; 14 days, PTI-801 600 mg with PTI-808 150 mg and PTI-428 30 mg): 5%
- improvement in ppFEV1 compared with before treatment [11, 13]: 6%
- improvement in ppFEV1 compared with placebo [11, 13]: 8%
